This is an account of results in patent US20220380375A1, “SUBSTITUTED AROMATIC FUSED RING DERIVATIVE AND COMPOSITION COMPRISING SAME, AND USE THEREOF” (Shenzhen TargetRx, Inc., priority 2019, published 2022).

Assay type in all cases: cell-based
In assay [1] the test system is Ba/F3 FLT3-ITD^D835Y cells. Put plainly: Cytotoxicity assay (CellTiter-Glo), Ba/F3 FLT3-ITD D835Y. The settings on record: ratio of Ba/F3 parental IC50 to Ba/F3 FLT3-ITD^D835Y IC50. Here is the method: (§1) Inhibitory effects of example compounds on the activity of Ba/F3 parental generation, Ba/F3 KIF5B-RET, Ba/F3 KIF5B-RET^V804M, Ba/F3 KIF5B-RET^V804L, Ba/F3 KIF5B-RET^G810R, Ba/F3 FLT3-ITD, Ba/F3 FLT3-ITD^D835Y, Ba/F3 FLT3-ITD^F691L cells were determined.
(§2) Materials and reagents: fetal bovine serum FBS (GIBCO, Cat #10099141), CellTiter-Glo® Luminescent Cell Viability Assay kit (Promega, Cat #G7572), 96-well black-wall clear flat-bottom plate (Corning®, Cat #3603).
(§3) 1. Cells in the logarithmic growth phase were harvested and counted with a […]. Cell viability was detected by a trypan blue exclusion method, ensuring that cell viability was 90% or more; 2. Cell concentration was adjusted to about 3000 cells/well; 90 μl of cell suspension was added to each well of the 96-well plate; 3. The cells in the 96-well plate were incubated overnight under the condition of 37° C., 5% CO2, and 95% humidity.
(§4) 1. A series of compound solutions were formulated by 3.16-fold serial dilution starting from a concentration of 10 μM, resulting in 9 concentrations. 10 μL of the compound solutions were added in each well of the 96-well plate seeded with cells in triplicate for each compound concentration; 2. The cells in the 96-well plate added with compounds were further incubated under the condition of 37° C., 5% CO2, and 95% humidity for 72 hrs, and then CTG analysis was carried out.
(§5) 1. CTG reagent was thawed, and the cell plate was equilibrated at room temperature for 30 minutes; 2. An equal volume […] of CTG solution was added to each well; 3. The cell plate was shaken on an orbital shaker for 5 minutes to lyse the cells; 4. The cell plate was placed at RT for 20 minutes to stabilize the luminescence signal; 5. Luminescence value was read.
(§6) Data were Analyzed by GraphPad Prism 5.0 Software, and Fitted by Nonlinear S-Curve Regression to obtain a dose-response curve, from which IC50 values were calculated.
(§7) Cell survival rate (%)=(luminescence value of drug to be tested−luminescence value of culture medium control)/(luminescence value of cell control−luminescence value of culture medium control)×100%.
In general terms: In ATP-based viability assays light output follows the ATP content of the culture.

Assay [2] deals with T1, Ba/F3 FLT3-ITD^D835Y cells (Homo sapiens, UniProt P36888, D835Y, cells depend on it, form not given).
T1 construct: Ba/F3 FLT3-ITD^D835Y IC50 (nM); other: CellTiter-Glo, 72 hrs
T1 sequence (P36888 1-993 D835Y): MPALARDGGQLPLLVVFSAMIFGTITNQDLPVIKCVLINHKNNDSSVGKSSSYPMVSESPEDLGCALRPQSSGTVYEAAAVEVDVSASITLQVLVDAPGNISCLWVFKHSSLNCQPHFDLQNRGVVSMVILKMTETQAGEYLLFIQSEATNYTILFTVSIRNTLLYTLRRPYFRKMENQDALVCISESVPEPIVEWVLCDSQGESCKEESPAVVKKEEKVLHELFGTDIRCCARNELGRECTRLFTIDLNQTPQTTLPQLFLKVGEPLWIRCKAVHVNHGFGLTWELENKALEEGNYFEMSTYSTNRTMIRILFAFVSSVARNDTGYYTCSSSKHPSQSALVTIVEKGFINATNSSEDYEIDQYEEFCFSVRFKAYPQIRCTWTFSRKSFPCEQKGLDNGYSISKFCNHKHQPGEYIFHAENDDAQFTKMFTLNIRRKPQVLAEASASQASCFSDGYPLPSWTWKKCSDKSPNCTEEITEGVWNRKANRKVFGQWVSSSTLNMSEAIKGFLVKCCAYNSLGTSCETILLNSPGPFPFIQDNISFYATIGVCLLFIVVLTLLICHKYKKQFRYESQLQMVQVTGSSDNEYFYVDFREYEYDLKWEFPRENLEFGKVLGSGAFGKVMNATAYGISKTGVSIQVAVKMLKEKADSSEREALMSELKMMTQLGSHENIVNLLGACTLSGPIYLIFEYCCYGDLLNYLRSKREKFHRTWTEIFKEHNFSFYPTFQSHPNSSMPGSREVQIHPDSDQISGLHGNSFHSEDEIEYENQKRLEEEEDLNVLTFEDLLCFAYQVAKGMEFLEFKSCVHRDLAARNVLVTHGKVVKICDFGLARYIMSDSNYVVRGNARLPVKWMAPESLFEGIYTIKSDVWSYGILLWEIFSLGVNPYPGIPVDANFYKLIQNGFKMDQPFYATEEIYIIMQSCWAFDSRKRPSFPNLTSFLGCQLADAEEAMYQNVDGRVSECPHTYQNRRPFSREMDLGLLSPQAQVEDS
The assay is described as above. The settings on record: CellTiter-Glo, 72 hrs; read-out: Ba/F3 FLT3-ITD^D835Y IC50. The method, then: as §1, §2, §3, §4, §5, §6, §7

The test system of assay [3] is Ba/F3 KIF5B-RET cells. Put plainly: Cytotoxicity assay (CellTiter-Glo), Ba/F3 KIF5B-RET. Particulars: ratio of Ba/F3 parental IC50 to Ba/F3 KIF5B-RET IC50. Here is the method: as §1, §2, §3, §4, §5, §6, §7
The target of assay [4] is T2, Ba/F3 KIF5B-RET cells (Homo sapiens, UniProt P07949).
T2 construct: Ba/F3 KIF5B-RET IC50 (nM); other: CellTiter-Glo, 72 hrs; fused on or other part: P33176 (Kinesin-1 heavy chain)
T2 sequence (P07949 whole entry, change not shown, the tested form may be a part): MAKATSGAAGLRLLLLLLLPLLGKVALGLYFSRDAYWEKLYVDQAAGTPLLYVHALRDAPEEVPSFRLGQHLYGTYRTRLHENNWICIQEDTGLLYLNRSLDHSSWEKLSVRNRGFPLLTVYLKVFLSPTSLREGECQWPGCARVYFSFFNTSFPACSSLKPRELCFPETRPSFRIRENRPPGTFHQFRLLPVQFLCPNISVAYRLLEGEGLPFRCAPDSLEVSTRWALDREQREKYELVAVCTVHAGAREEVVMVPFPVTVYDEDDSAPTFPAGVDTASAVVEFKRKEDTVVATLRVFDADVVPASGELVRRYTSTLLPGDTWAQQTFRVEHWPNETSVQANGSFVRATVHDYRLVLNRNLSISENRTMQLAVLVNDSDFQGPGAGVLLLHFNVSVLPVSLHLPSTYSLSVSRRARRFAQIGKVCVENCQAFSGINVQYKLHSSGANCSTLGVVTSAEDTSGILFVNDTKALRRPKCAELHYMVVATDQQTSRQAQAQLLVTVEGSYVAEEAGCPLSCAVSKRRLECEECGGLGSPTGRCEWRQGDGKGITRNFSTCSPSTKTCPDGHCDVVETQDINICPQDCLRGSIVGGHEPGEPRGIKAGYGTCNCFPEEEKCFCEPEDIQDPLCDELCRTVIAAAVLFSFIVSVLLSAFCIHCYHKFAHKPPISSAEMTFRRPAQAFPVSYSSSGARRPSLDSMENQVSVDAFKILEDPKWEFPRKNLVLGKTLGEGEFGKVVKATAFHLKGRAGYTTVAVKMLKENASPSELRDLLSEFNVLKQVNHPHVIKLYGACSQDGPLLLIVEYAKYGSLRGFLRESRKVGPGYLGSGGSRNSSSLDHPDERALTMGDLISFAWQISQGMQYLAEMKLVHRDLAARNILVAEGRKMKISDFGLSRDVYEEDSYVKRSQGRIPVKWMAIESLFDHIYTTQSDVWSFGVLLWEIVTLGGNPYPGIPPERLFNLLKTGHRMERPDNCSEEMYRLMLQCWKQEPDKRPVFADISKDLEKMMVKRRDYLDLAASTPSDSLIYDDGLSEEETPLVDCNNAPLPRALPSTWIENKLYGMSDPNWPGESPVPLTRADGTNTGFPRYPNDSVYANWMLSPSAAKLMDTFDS
The description is as above. Particulars: CellTiter-Glo, 72 hrs; read-out: Ba/F3 KIF5B-RET IC50. The method, then: as §1, §2, §3, §4, §5, §6, §7

Consider `CC(C)n1nc(-c2ccc(NC(=O)Nc3cc(C(F)(F)F)ccc3F)cc2)c2c(N)ncnc21` [AD80, reference compound], for which the “Ba/F3 FLT3-ITD^D835Y Selectivity on parental generation” value (shortened to “Ba/F3 FLT3-ITD^D835Y Selectivity”) in assay [1] is listed as 21.82. Further, the GI50 in assay [2] is 30.1 nM; in assay [4] it was 2.19 nM. Further, the “Ba/F3 KIF5B-RET Selectivity on parental generation” value (“Ba/F3 KIF5B-RET Selectivity” below) in assay [3] is 370.7.

Take `CC(C)n1nc(-c2ccc(CC(=O)Nc3cc(C(C)(C)C(F)(F)F)on3)cc2)c2c(N)ncnc21` [Compound T-1, 2-(4-(4-amino-1-isopropyl-1H-pyrazolo[3,4-d]pyrimidin-3-yl)phenyl)-N-(5-(1,1,1-trifluoro-2-methylprop-2-yl)isoxazol-3-yl)acetamide]: the “Ba/F3 FLT3-ITD^D835Y Selectivity” value in assay [1] turned out to be 137.97. For the same compound, the GI50 was 14.4 nM in assay [2] and 0.15 nM in assay [4]. Besides, the “Ba/F3 KIF5B-RET Selectivity” value in assay [3] is given as 10802.6.

Consider `CC(C)n1nc(-c2ccc(NC(=O)Nc3cc(C(C)(C)C(F)(F)F)on3)cc2)c2c(N)ncnc21` [Compound T-2, 1-(4-(4-amino-1-isopropyl-1H-pyrazolo[3,4-d]pyrimidin-3-yl)phenyl)-3-(5-(1,1,1-trifluoro-2-methylprop-2-yl)isoxazol-3-yl)urea], for which the “Ba/F3 FLT3-ITD^D835Y Selectivity” value in assay [1] came out at 35.48. The figures for the GI50 in assay [2] and in assay [4] were 6.05 nM and 0.16 nM, respectively. Further, the “Ba/F3 KIF5B-RET Selectivity” value in assay [3] stood at 2111.4.

On to `CC(C)n1cc(-c2ccc(CC(=O)Nc3cc(C(C)(C)C(F)(F)F)on3)cc2)c2c(N)ncnc21` [Compound T-3, 2-(4-(4-amino-7-isopropyl-7H-pyrrolo[2,3-d]pyrimidin-5-yl)phenyl)-N-(5-(1,1,1-trifluoro-2-methylprop-2-yl)isoxazol-3-yl)acetamide], for which the “Ba/F3 FLT3-ITD^D835Y Selectivity” value in assay [1] is given as 218.67. Moreover, the GI50 in assay [2] was found to be 2.92 nM; in assay [4] it was 0.58 nM. The “Ba/F3 KIF5B-RET Selectivity” value in assay [3] amounted to 1249.0.

`CC(C)c1nc(-c2ccc(CC(=O)Nc3cc(C(C)(C)C(F)(F)F)on3)cc2)c2c(N)nccn12` [Compound T-4, 2-(4-(8-amino-3-isopropylimidazo[1,5-a]pyrazin-1-yl)phenyl)-N-(5-(1,1,1-trifluoro-2-methylprop-2-yl)isoxazol-3-yl)acetamide]: the “Ba/F3 FLT3-ITD^D835Y Selectivity” value in assay [1] worked out at 32.03. The GI50 in assay [2] was found to be 23.1 nM; in assay [4], 1.56 nM. Also, the “Ba/F3 KIF5B-RET Selectivity” value in assay [3] came to 449.4.

As to `CC(C)c1cc(-c2ccc(CC(=O)Nc3cc(C(C)(C)C(F)(F)F)on3)cc2)c2c(N)ncnn12` [Compound T-5, 2-(4-(4-amino-7-isopropylpyrrolo[2,1-f][1,2,4]triazin-5-yl)phenyl)-N-(5-(1,1,1-trifluoro-2-methylprop-2-yl)isoxazol-3-yl)acetamide], the “Ba/F3 FLT3-ITD^D835Y Selectivity” value in assay [1] turned out to be 133.6. Also, the values for the GI50 in assay [2] and in assay [4] were 35.8 nM and 2.88 nM, respectively. Further, the “Ba/F3 KIF5B-RET Selectivity” value in assay [3] was determined as 1660.8.

Turning to `CC(C)n1nc(-c2ccc(CC(=O)Nc3cc(C(C)(C)C(F)(F)F)on3)c(F)c2)c2c(N)ncnc21` [Compound T-6, 2-(4-(4-amino-1-isopropyl-1H-pyrazolo[3,4-d]pyrimidin-3-yl)-2-fluorophenyl)-N-(5-(1,1,1-trifluoro-2-methylprop-2-yl)isoxazol-3-yl)acetamide], the “Ba/F3 FLT3-ITD^D835Y Selectivity” value in assay [1] is given as 193.58. In addition, the GI50 in assay [2] is 9.6 nM; in assay [4], 0.31 nM. Also, the “Ba/F3 KIF5B-RET Selectivity” value in assay [3] is listed as 6759.6.

As to `CC(C)n1nc(-c2ccc(CC(=O)Nc3cc(C(C)(C)C(F)(F)F)on3)cn2)c2c(N)ncnc21` [Compound T-7, 2-(6-(4-amino-1-isopropyl-1H-pyrazolo[3,4-d]pyrimidin-3-yl)pyridin-3-yl)-N-(5-(1,1,1-trifluoro-2-methylprop-2-yl)isoxazol-3-yl)acetamide], the “Ba/F3 FLT3-ITD^D835Y Selectivity” value in assay [1] came out at 32.63. In addition, the GI50 in assay [2] came out at 5.57 nM; in assay [4], 4.61 nM. The “Ba/F3 KIF5B-RET Selectivity” value in assay [3] came out at 71.2.

Take `CC(C)n1nc(-c2ccc(CC(=O)Nc3cc(C(C)(C)C(F)(F)F)no3)cc2)c2c(N)ncnc21` [Compound T-8, 2-(4-(4-amino-1-isopropyl-1H-pyrazolo[3,4-d]pyrimidin-3-yl)phenyl)-N-(3-(1,1,1-trifluoro-2-methylprop-2-yl)isoxazol-5-yl)acetamide]: the “Ba/F3 FLT3-ITD^D835Y Selectivity” value in assay [1] is reported as 500.9. Moreover, the figures for the GI50 in assay [2] and in assay [4] were 7.34 nM and 1.03 nM, respectively. For the same compound, the “Ba/F3 KIF5B-RET Selectivity” value in assay [3] was found to be 3569.9.

In the case of `CC(C)n1nc(-c2ccc(CC(=O)Nc3cc(C(C)(C)C(F)(F)F)no3)cn2)c2c(N)ncnc21` [Compound T-9, 2-(6-(4-amino-1-isopropyl-1H-pyrazolo[3,4-d]pyrimidin-3-yl)pyridin-3-yl)-N-(3-(1,1,1-trifluoro-2-methylprop-2-yl)isoxazol-5-yl)acetamide], the “Ba/F3 FLT3-ITD^D835Y Selectivity” value in assay [1] is given as 87.8. Also, the figures for the GI50 in assay [2] and in assay [4] were 46.9 nM and 10.9 nM, respectively. In assay [3], the “Ba/F3 KIF5B-RET Selectivity” value was determined as 377.8.

On to `CC(C)c1nc(-c2ccc(CC(=O)Nc3cc(C(C)(C)C(F)(F)F)on3)cc2)c2c(N)ncnn12` [Compound T-10, 2-(4-(4-amino-7-isopropylimidazo[5,1-f][1,2,4]triazin-5-yl)phenyl)-N-(5-(1,1,1-trifluoro-2-methylprop-2-yl)isoxazol-3-yl)acetamide], for which, in assay [1], the “Ba/F3 FLT3-ITD^D835Y Selectivity” value turned out to be 48.3. Further, the GI50 in assay [2] is 46.4 nM; in assay [4], 3.68 nM. In assay [3], the “Ba/F3 KIF5B-RET Selectivity” value is listed as 609.2.

Consider `[2H]C([2H])([2H])C(n1nc(-c2ccc(CC(=O)Nc3cc(C(C)(C)C(F)(F)F)no3)cc2)c2c(N)ncnc21)C([2H])([2H])[2H]` [Compound T-11, 2-(4-(4-amino-1-(propan-2-yl-1,1,1,3,3,3-d6)-1H-pyrazolo[3,4-d]pyrimidin-3-yl)phenyl)-N-(3-(1,1,1-trifluoro-2-methylpropan-2-yl)isoxazol-5-yl)acetamide], for which, in assay [1], the “Ba/F3 FLT3-ITD^D835Y Selectivity” value turned out to be 307.7. The GI50 in assay [2] turned out to be 17.9 nM; in assay [4] it was 1.3 nM. In assay [3], the “Ba/F3 KIF5B-RET Selectivity” value is listed as 4236.2.
